According to ChEMBL document CHEMBL1221163, “Monocarboxylate transporter MCT1 is a target for immunosuppression” (Nat Chem Biol, 2005):
Activity calls are given as the source filed them. The rule behind the calls is not given here.

Key:
[1] = Antiproliferative activity against human T cells assessed as inhibition of PMA-ionomycin stimulated cell proliferation after 3 days by [3H]thymidine incorporation assay; type: functional, cell-based
T-cell [2] = assay: Increase in intracellular lactate production in PMA-ionomycin stimulated human T cells after 4 hrs; type: functional, cell-based
T-cell [3] = assay: Inhibition of DNA synthesis in PMA-ionomycin stimulated human T cells after 4 hrs by [3H]thymidine incorporation assay; type: functional, cell-based
T-cell [4] = assay: Reduction in extracellular lactate production in PMA-ionomycin stimulated human T cells after 4 hrs; type: functional, cell-based
[5] = target: T1, Monocarboxylate transporter 1 (Homo sapiens, UniProt P53985); assay: Displacement of [3H]5-[(3-hydroxypropyl)thio]-3-methyl-1-[2-(methyl-t)propyl-2,3-t2]-6-(1-naphthalenylmethyl)-1H-pyrrolo[3,4-d]pyrimidine-2,4(3H,6H)-dione from MCT1 in human Jurkat cell membranes
T1 sequence (P53985 whole entry): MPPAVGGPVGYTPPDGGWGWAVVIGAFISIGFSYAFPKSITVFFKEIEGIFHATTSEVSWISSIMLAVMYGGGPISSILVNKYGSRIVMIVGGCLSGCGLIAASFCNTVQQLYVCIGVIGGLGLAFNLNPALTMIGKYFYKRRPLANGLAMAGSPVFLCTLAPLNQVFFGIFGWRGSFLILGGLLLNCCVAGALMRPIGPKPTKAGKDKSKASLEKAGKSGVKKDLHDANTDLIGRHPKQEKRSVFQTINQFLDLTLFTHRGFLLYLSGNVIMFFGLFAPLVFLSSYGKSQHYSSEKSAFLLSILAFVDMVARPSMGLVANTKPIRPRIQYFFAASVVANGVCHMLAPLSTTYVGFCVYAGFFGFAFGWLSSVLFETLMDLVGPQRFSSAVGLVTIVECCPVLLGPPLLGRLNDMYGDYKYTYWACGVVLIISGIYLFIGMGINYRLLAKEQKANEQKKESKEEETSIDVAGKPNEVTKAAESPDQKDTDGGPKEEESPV

PBMC = assay: Antiproliferative activity against human PBMC assessed as inhibition of PMA/ionomycin-stimulated cell proliferation by [3H]thymidine incorporation assay; type: functional, cell-based
[6] = target: T1, Monocarboxylate transporter 1; assay: Displacement of [3H]5-[(3-hydroxypropyl)thio]-3-methyl-1-[2-(methyl-t)propyl-2,3-t2]-6-(1-naphthalenylmethyl)-1H-pyrrolo[3,4-d]pyrimidine-2,4(3H,6H)-dione from human MCT1 expressed in INS1 cell membrane; type: cell membranes
[7] = target: T2, Monocarboxylate transporter 1 (Homo sapiens) (UniProt P53985); conditions: INS1, 10 nM
T2 sequence (whole entry): T1 sequence (P53985 whole entry)

T-cell [8] = assay: Antiproliferative activity against human T cells assessed as inhibition of PMA-ionomycin stimulated cell proliferation by [3H]thymidine incorporation assay; type: functional, cell-based
T-cell [9] = assay: Antiproliferative activity against Lewis rat T cells assessed as inhibition of PMA-ionomycin stimulated cell proliferation by [3H]thymidine incorporation assay; type: functional, cell-based
Rattus norvegicus = assay: Inhibition of graft-versus-host response-induced lymph node expansion in DA/Lewis recipient rat administered once daily through subcutaneous route; type: functional; conditions: sc
T-cell [10] = assay: Inhibition of conversion of [1,2-13C2]glucose into [2,3-13C2]lactate in PMA-ionomycin stimulated human T cells at 10 nM after 6 hrs by GC-MS method; type: functional, cell-based

Structure (SMILES) | IC50 (T-cell [2]) | IC50 (T-cell [3]) | IC50 (T-cell [4]) | IC50 [1] | IC50 (PBMC) | further results
CC(C)Cn1c(=O)n(C)c(=O)c2cn(Cc3cccc4ccccc34)cc21 | – | – | – | – | 56.2 nM | Ki [5]: 15.5 nM; Ki ([6]; read-out: pKi (converted)): 46.8 nM
CC(C)Cc1nn(C)c(=O)c2c(SCCCO)n(Cc3cccc4ccccc34)cc12 | 0.55 nM | 1.35 nM | 0.794 nM | 0.38 nM | – | inhibition (PBMC): Active; inhibition [7]: Active; inhibition (T-cell [8]): Active; inhibition (T-cell [9]): Active; ED50 (Rattus norvegicus): 5 mg/kg/day; inhibition (T-cell [10]): Active
CC(C)Cn1c(=O)n(C)c(=O)c2c(SCCCO)c(Cc3ccccc3C(F)(F)F)sc21 | – | – | – | – | 0.257 nM | –
CC(C)Cc1nn(C)c(=O)c2cn(Cc3ccc(N=[N+]=[N-])c([125I])c3)cc12 | – | – | – | – | – | Ki ([6]; read-out: Ki): 23 nM

Now from value to molecule, other results behind:

IC50 (T-cell [2]) | IC50 (T-cell [3]) | IC50 (T-cell [4]) | Structure (SMILES) | IC50 [1] | IC50 (PBMC) | further results
3.31 nM | 10 nM | 5.37 nM | CC(C)Cn1c(=O)n(C)c(=O)c2c(C(=O)N3CCCC3)c(Cc3ccccc3C(F)(F)F)sc21 | 2.88 nM | – | –
1.55 nM | 3.31 nM | 4.27 nM | CC(C)Cn1c(=O)n(C)c(=O)c2c(C(=O)N3CC[C@@H](O)C3)c(Cc3c[nH]c4ccccc34)sc21 | 0.912 nM | – | –
